The source of these data is ChEMBL document CHEMBL5442219.

What all share (settings): Compound concentration 10 µM
For experiment [1], the target named is Sodium-dependent noradrenaline transporter (Homo sapiens) (UniProt P23975).
Experiment [2] addresses T1, 5-hydroxytryptamine receptor 3A (Homo sapiens) (UniProt P46098).
T1 sequence (whole entry): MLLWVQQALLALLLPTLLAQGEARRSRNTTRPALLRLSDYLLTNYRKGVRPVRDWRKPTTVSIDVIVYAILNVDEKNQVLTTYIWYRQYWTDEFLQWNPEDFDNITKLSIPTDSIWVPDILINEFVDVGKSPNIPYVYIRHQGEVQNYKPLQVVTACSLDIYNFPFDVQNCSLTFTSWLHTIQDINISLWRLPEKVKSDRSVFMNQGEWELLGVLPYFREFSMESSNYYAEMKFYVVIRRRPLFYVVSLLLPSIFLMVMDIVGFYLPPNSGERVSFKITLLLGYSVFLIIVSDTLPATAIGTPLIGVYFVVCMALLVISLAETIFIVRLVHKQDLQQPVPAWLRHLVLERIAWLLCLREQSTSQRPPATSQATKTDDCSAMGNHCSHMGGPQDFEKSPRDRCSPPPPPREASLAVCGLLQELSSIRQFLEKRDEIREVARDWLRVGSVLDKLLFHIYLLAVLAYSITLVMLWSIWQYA

Experiment [3] concerns the target Histamine H3 receptor (Homo sapiens) (UniProt Q9Y5N1).
In experiment [4] the target is T2, Alpha-2C adrenergic receptor (Homo sapiens) (UniProt P18825).
T2 sequence (whole entry): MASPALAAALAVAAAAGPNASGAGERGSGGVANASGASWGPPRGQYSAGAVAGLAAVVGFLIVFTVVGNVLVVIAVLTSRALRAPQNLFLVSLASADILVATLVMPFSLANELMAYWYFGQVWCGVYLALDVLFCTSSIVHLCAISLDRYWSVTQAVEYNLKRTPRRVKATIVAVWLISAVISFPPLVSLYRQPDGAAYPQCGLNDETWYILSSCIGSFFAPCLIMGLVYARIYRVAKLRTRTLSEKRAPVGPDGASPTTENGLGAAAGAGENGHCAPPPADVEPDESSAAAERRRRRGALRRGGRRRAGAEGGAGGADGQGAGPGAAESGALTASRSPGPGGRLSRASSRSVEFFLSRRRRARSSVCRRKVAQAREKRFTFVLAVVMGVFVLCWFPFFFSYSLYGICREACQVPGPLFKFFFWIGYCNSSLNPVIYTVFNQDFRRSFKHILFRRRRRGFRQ

The target in experiment [5] is 5-hydroxytryptamine receptor 6 (Homo sapiens) (UniProt P50406).
Experiment [6] has as its target T3, D(4) dopamine receptor (Homo sapiens) (UniProt P21917).
T3 sequence (whole entry): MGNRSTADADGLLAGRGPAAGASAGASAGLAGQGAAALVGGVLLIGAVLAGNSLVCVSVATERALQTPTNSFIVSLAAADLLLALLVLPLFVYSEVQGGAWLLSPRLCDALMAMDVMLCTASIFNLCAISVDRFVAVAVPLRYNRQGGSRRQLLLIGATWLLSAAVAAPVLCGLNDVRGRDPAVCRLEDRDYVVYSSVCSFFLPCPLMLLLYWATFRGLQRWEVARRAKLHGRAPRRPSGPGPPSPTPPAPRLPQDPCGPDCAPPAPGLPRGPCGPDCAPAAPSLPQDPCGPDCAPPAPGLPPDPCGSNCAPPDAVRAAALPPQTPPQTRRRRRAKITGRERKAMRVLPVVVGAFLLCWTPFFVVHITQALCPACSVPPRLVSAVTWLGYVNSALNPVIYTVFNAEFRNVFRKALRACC

For experiment [7], the target named is T4, 5-hydroxytryptamine receptor 1A (Homo sapiens) (UniProt P08908).
T4 sequence (whole entry): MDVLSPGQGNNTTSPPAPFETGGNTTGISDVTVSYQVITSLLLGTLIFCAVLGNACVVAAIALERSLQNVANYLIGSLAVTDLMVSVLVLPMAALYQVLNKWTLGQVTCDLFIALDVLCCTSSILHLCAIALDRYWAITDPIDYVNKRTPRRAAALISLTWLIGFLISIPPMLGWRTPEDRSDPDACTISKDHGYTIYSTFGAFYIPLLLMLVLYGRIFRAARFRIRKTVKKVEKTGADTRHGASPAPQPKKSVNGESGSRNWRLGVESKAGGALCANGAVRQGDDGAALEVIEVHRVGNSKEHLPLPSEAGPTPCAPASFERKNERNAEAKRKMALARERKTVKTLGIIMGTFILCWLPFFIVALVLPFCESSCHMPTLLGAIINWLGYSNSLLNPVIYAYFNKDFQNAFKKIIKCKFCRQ

The target of experiment [8] is 5-hydroxytryptamine receptor 7 (Homo sapiens) (UniProt P34969).
Experiment [9] deals with Histamine H4 receptor (Homo sapiens) (UniProt Q9H3N8).
The target in experiment [10] is T5, Alpha-2A adrenergic receptor (Homo sapiens) (UniProt P08913).
T5 sequence (whole entry): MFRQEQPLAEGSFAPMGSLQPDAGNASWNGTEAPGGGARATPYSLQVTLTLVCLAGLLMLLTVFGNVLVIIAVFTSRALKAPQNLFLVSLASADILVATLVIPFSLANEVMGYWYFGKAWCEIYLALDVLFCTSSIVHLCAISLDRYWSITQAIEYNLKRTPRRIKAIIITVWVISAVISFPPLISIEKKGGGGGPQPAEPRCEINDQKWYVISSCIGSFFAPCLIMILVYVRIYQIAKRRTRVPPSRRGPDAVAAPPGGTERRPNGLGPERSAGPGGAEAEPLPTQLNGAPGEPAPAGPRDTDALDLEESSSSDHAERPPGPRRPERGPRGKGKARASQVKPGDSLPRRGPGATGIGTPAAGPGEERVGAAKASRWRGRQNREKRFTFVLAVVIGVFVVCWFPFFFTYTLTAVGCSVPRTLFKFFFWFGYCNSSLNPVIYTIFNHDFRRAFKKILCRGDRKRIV

Experiment [11] addresses Muscarinic acetylcholine receptor M3 (Homo sapiens) (UniProt P20309).
In experiment [12] the target is D(3) dopamine receptor (Homo sapiens) (UniProt P35462).
The target in experiment [13] is 5-hydroxytryptamine receptor 1E (Homo sapiens) (UniProt P28566).
Sequence of 5-hydroxytryptamine receptor 1E (Homo sapiens) (P28566 whole entry): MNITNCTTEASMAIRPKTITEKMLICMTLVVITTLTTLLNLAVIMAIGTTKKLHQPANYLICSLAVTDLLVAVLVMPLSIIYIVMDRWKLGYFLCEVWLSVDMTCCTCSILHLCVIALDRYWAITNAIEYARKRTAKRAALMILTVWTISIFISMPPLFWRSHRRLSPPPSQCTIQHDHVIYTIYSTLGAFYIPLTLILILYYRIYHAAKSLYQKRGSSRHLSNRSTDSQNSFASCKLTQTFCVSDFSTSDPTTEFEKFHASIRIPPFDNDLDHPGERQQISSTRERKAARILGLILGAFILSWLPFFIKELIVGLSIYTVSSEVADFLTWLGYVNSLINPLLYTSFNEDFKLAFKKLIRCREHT

Sequence of Histamine H3 receptor (Homo sapiens) (Q9Y5N1 whole entry): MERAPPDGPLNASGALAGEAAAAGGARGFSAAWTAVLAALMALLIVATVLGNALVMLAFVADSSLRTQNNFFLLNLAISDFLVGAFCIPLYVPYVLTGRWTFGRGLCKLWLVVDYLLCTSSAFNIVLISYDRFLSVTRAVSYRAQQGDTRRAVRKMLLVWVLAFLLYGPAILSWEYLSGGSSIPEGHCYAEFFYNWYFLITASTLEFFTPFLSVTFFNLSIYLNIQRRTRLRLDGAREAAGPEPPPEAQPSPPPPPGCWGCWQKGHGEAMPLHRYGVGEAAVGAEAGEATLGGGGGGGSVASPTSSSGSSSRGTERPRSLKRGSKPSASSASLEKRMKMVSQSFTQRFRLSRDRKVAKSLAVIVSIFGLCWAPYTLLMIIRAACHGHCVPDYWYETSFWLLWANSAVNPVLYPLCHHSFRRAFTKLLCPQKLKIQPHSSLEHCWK
Sequence of Muscarinic acetylcholine receptor M3 (Homo sapiens) (P20309 whole entry, looked up): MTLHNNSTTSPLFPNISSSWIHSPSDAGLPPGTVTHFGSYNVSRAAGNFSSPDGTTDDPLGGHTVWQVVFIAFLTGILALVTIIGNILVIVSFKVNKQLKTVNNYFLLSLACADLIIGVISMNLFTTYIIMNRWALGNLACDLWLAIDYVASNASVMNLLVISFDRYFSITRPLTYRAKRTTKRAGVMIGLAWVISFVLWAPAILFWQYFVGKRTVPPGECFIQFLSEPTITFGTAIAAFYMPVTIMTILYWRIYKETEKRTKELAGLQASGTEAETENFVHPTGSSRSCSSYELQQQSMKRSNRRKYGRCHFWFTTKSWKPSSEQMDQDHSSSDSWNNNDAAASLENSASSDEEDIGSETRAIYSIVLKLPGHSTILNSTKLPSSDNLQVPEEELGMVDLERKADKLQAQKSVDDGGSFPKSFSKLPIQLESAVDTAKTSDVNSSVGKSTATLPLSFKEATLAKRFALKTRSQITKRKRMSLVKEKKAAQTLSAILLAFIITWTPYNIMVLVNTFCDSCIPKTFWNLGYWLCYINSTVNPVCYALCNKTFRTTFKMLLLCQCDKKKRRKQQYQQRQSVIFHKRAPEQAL
Sequence of Sodium-dependent noradrenaline transporter (Homo sapiens) (P23975 whole entry): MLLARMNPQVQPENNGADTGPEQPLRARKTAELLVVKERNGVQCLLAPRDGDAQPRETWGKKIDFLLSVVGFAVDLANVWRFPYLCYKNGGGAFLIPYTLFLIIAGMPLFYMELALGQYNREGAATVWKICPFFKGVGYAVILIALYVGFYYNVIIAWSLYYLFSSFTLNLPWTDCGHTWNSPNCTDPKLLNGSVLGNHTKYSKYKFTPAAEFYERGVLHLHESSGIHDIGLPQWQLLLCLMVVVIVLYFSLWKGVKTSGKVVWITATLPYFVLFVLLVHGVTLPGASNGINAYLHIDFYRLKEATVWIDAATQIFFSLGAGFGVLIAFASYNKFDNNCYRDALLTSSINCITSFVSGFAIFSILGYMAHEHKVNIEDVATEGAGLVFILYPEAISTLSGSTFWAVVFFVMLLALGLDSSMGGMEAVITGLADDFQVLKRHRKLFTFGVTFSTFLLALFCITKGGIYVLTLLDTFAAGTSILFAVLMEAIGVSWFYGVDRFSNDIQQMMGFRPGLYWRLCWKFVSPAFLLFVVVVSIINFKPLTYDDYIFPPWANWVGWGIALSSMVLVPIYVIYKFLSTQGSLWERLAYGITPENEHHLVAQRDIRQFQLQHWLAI
Sequence of Histamine H4 receptor (Homo sapiens) (Q9H3N8 whole entry): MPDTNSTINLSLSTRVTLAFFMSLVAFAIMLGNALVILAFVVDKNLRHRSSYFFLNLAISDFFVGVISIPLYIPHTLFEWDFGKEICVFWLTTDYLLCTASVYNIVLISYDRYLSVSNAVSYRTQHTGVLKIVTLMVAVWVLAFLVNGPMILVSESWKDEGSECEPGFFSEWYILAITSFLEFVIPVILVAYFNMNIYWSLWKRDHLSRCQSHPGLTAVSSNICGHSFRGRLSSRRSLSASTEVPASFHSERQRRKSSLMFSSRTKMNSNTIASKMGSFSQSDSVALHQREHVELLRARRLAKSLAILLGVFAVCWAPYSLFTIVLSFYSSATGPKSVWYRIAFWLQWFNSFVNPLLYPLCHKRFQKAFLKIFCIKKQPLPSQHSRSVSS
Sequence of 5-hydroxytryptamine receptor 6 (Homo sapiens) (P50406 whole entry): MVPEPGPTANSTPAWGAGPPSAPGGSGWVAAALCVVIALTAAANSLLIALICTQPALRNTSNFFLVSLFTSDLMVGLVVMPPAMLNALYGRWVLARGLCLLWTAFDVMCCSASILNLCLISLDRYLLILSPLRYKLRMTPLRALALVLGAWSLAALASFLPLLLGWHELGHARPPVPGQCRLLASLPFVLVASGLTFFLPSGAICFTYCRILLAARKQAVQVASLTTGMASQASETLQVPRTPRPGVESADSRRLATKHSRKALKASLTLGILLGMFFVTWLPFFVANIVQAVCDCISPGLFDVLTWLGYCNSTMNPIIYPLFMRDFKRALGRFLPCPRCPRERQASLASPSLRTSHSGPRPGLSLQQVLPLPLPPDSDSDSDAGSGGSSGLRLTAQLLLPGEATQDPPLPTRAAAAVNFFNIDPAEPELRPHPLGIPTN
Sequence of D(3) dopamine receptor (Homo sapiens) (P35462 whole entry): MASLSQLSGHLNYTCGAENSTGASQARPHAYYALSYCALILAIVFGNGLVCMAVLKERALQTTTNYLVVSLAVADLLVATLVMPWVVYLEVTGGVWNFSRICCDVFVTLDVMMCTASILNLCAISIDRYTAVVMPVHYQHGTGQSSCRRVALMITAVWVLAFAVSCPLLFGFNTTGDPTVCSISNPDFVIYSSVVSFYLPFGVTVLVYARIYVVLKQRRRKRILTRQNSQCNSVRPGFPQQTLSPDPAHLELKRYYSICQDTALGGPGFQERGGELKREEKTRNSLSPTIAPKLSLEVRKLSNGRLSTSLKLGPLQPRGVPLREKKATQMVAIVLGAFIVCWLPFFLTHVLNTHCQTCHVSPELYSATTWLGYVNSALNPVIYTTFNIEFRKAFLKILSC
Sequence of 5-hydroxytryptamine receptor 7 (Homo sapiens) (P34969 whole entry): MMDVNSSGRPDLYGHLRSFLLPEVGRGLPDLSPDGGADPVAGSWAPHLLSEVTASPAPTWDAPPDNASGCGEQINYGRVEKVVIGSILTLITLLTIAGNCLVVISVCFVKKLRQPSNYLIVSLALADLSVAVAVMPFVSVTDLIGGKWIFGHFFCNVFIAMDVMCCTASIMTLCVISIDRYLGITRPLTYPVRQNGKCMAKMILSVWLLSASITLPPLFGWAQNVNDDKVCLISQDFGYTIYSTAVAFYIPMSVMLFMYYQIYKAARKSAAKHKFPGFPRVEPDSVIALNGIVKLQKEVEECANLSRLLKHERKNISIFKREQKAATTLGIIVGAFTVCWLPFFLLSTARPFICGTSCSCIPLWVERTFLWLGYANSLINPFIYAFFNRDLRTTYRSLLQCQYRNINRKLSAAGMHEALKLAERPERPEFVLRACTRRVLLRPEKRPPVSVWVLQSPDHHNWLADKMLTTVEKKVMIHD

`C/C(=N\NC(=O)[C@@H]1C(=O)NC[C@H]1c1ccccc1)c1cccc(Br)c1`: the inhibition is 11.2% in experiment [1]; -4.26% in [2]; 7.14% in [3]; -7.78% in experiment [4]; 7.94% in experiment [5]; 2.24% in experiment [6]. Also, the inhibition is 26.4% in [7] and 8.23% in experiment [8].

As for `CCN(CC)CCCCC1CCN(CC(=O)N2c3ccccc3C(=O)Nc3cccnc32)CC1`, the inhibition in [1] is 15.3%; in [9], 21.4%; in [2], 3.5%; in experiment [3] it was 43%; in experiment [10], 12.9%; in experiment [4] it was -6.76%. The inhibition is 88.7% in experiment [11]; -7.42% in experiment [5]; -8.29% in [6]; 0.4% in [7]; 13.8% in [12].

With `COc1cc2c(CCNC(C)=O)c[nH]c2cc1Cl`, the inhibition was 2.03% in [9]; 16.3% in [13]; 13.4% in experiment [10]; -1.89% in [4]; -6.09% in experiment [6]; -4.64% in experiment [7]. The inhibition in experiment [8] is -0.31%.

Regarding `Cc1cccc(NC(=O)N[C@@H]2N=C(c3ccccc3)c3ccccc3N(C)C2=O)c1`, the inhibition in experiment [1] was 1.83%; in experiment [9], 18.3%; in [2] it was -5.37%; in [13] it was 18.6%; in [3], -5.59%; in experiment [10] it was 13.9%. Moreover, the inhibition is 12.3% in experiment [4]; 6.3% in [5]; 14.6% in experiment [6]; -9.64% in experiment [7]; 0.6% in [12]; 3.26% in experiment [8].

In the case of `CCCSc1nc(N[C@@H]2C[C@H]2c2ccc(F)c(F)c2)c2nnn([C@@H]3C[C@H](OCCO)[C@@H](O)[C@H]3O)c2n1`, the inhibition in experiment [9] was -2.55%; in experiment [2], 4.33%; in experiment [13], 3.9%; in experiment [4] it was 15.4%; in [5], 7.72%; in experiment [6], 7.98%. The figures for the inhibition in [7], in experiment [12] and in experiment [8] were 11.6%, 29.6% and 16.8%, respectively.

Take `CCCCc1nc(Cl)c(CO)n1Cc1ccc(-c2ccccc2-c2nnn[nH]2)cc1`: the inhibition in experiment [1] is 11.8%; in experiment [9] it was 7.13%; in [2] it was -6.45%; in experiment [13] it was 7.06%; in [3], 31.4%; in experiment [10] it was 6.2%. The inhibition in experiment [4] was 3.84%; in [5], 17.6%; in [6], 37%; in [7] it was 19.9%; in experiment [12], 46.3%; in experiment [8], 40%.

In the case of `COc1ccc(C2(O)OC(=O)C(c3ccc4c(c3)OCO4)=C2Cc2cc(OC)c(OC)c(OC)c2)cc1` (stereo unspecified), the inhibition was 14.6% in [9]; -4.29% in [13]; -8.58% in [3]; 4.57% in experiment [10]; 6.22% in experiment [11]; -2.9% in experiment [5]. In addition, the inhibition in experiment [6] was 7.04%; in experiment [7] it was 8.87%; in experiment [12] it was -2.35%; in [8], 12%.

`CCCn1c(=O)c2[nH]c(-c3cnn(Cc4cccc(C(F)(F)F)c4)c3)nc2n(CC)c1=O`: the inhibition was 25.1% in experiment [1]; -4.02% in experiment [2]; -4% in experiment [13]; 3.01% in experiment [3]; 10.9% in experiment [10]; -0.44% in [4]. Besides, the inhibition was 3.75% in [11] and 0.57% in experiment [6].

In the case of `Nc1nc2c(c(N3CCNCC3)n1)CCC1=C2[C@@H]2CCCC[C@@H]2O1`, the inhibition in [9] was 89.8%; in experiment [2], 98.1%; in experiment [13], 34.5%; in experiment [3], 34.4%; in experiment [10], 4.22%; in [4] it was 30.6%. Moreover, the inhibition in experiment [11] was 15.3%; in [5] it was 17.3%; in experiment [6], 8.96%; in experiment [7], 49.9%; in experiment [8] it was 17.8%.

Consider `CN(C)C(=O)C(CCN1CCC(O)(c2ccc(Cl)cc2)CC1)(c1ccccc1)c1ccccc1`, for which the inhibition is 25.8% in experiment [1]; 7.53% in experiment [9]; 18.4% in experiment [13]; 10.4% in experiment [3]; 47.1% in experiment [10]; 39.4% in experiment [4]. The inhibition in experiment [5] is 14.9%; in experiment [6], 54.2%; in experiment [7], 41.4%; in experiment [12] it was 42.1%; in experiment [8] it was 20.8%.

Turning to `c1ccc(N2CCN(Cc3nc4ccccc4[nH]3)CC2)nc1`, the inhibition in [2] was -2.37%; in experiment [13], 6.29%; in [3], 0.89%; in [4] it was 4.37%; in [11], -4.76%; in [5], -0.41%. In addition, the inhibition in experiment [6] was 87.2%; in experiment [7] it was 35.1%; in experiment [12] it was 33.1%; in [8], 33.7%.

Turning to `CC(C)NCC(O)COc1cccc2ccccc12` (stereo unspecified), the inhibition in experiment [1] was 46.2%; in [9], 10.8%; in [2], 8.73%; in [13], 3.24%; in experiment [3] it was 5.07%; in experiment [10], 16.4%. For the same molecule, the inhibition is 8.7% in [4]; 74.2% in experiment [5]; 13.2% in experiment [6]; 77.5% in experiment [7]; 23.3% in experiment [12]; 13.3% in experiment [8].
